# Assay results: ChEMBL document CHEMBL1149133, “3,3-diaryl-1,3-dihydroindol-2-ones as antiproliferatives mediated by translation initiation inhibition” (2004)
# Legend:
# [1] = system: Lung cancer cell line; assay: In vitro anticancer activity against human lung cancer cell line; assay type: functional
# [2] = Compound evaluated for their ability to phosphorylate eIF2R; assay type: functional; design: unit not given here
GI50 [1],Compound,Activity [2]
4 µM,CC(C)(C)c1ccc(O)c(C2(c3ccccc3)C(=O)Nc3ccccc32)c1 (stereo not given),2
8 µM,O=C1Nc2ccc(I)cc2C1(c1ccccc1)c1ccccc1,1.31
> 20 µM,CCc1ccc2c(c1)C(c1ccccc1)(c1ccccc1)C(=O)N2,0.85
7 µM,CC(C)(C)c1ccc(C2(c3ccccc3O)C(=O)Nc3ccccc32)cc1 (stereo not given),1.33
14 µM,CC(C)(C)c1ccc(C2(c3ccc(O)cc3)C(=O)Nc3ccccc32)cc1 (stereo not given),2.01
> 20 µM,CN1C(=O)C(c2ccccc2)(c2ccccc2)c2ccccc21,–
13 µM,O=C1Nc2ccccc2C1(c1ccccc1)c1ccccc1,1
4 µM,CC(C)(C)c1cccc(C2(c3ccccc3)C(=O)Nc3ccccc32)c1 (stereo not given),1.04
14 µM,O=C1Nc2ccc([N+](=O)[O-])cc2C1(c1ccccc1)c1ccccc1,1.2
9 µM,O=C1Nc2ccc(S(=O)(=O)O)cc2C1(c1ccccc1)c1ccccc1,–

# More lines, now with the values behind:
Compound,GI50 [1],Activity [2]
O=C1Nc2cc(Br)ccc2C1(c1ccccc1)c1ccccc1,–,0.89
CC(C)(C)c1ccc(C2(c3ccccc3)C(=O)Nc3ccccc32)cc1 (stereo not given),8 µM,0.95
CC(C)(C)c1ccc(O)c(C2(c3ccccc3)C(=O)Nc3ccc(I)cc32)c1 (stereo not given),–,1.4
COc1ccccc1C1(c2ccccc2)C(=O)Nc2ccccc21 (stereo not given),–,0.48
COc1ccccc1C1(c2ccc(C(C)(C)C)cc2)C(=O)Nc2ccccc21 (stereo not given),–,0.93
O=C1Nc2ccc(Cl)cc2C1(c1ccccc1)c1ccccc1,–,0.61
O=C1Nc2cccc(Br)c2C1(c1ccccc1)c1ccccc1,–,0.84
O=C1Nc2ccccc2C1(c1ccccc1)c1ccccc1O (stereo not given),–,0.56
O=C1Nc2ccccc2C1(c1ccccc1)c1ccc(O)cc1 (stereo not given),–,0.86
O=C1Nc2ccc(Br)cc2C1(c1ccccc1)c1ccccc1,–,0.79
O=C1Nc2ccc(F)cc2C1(c1ccccc1)c1ccccc1,–,0.44
